Assays:
[1] = test system: Micrococcus luteus reference strain; experiment: Bacterial growth (optical density at 600 nm) on Micrococcus luteus reference strain; assay type: cell-based; set-up: key: 0 = no effect, 1 = pure only, 2 = several concentrations, 3 = strong at all; conditions: in DMSO diluted in PBS, compared with triclosan
Experimental: (§1) The bacterial growth is evaluated by measuring the optical density (DO) at 600 nm using NanoDrop.
(§2) This ratio permits a classification of the molecules in 4 effect levels: • 0=no effect observed; • 1=effect observed only when the molecule is tested pure; • 2=effect observed at several concentrations, but which gradually decreases the dilutions; • 3=strong effect observed at each concentration of molecule tested.
The molecules are put in a solution in DMSO and diluted in PBS.

[2] = test system: Streptococcus equi subsp zooepidemicus; experiment: Bacterial growth screening on wild-type phenotype strain, S. zooepidemicus; assay type: cell-based
Experimental: as §1, §2
(§3) A screening of molecules of the invention on several wild-type phenotype strains has been carried out.
(§4) The strains initially selected are: • Gram+: Streptococcus equi subsp zooepidemicus and Staphylococcus aureus • Gram−: Escherichia coli, Klebsiella pneumoniae and Stenotrophomonas maltophila.

Staphylococcus aureus = experiment: Bacterial growth screening on wild-type phenotype strain, S. aureus; assay type: cell-based
Experimental: as §1, §2, §3, §4

Escherichia coli = experiment: Bacterial growth screening on wild-type phenotype strain, E. coli; assay type: cell-based
Experimental: as §1, §2, §3, §4

Klebsiella pneumoniae = experiment: Bacterial growth screening on wild-type phenotype strain, K. pneumoniae; assay type: cell-based
Experimental: as §1, §2, §3, §4

[3] = test system: Stenotrophomonas maltophila; experiment: Bacterial growth screening on wild-type phenotype strain, S. maltophila; assay type: cell-based
Experimental: as §1, §2, §3, §4

[4] = test system: E. coli strains presenting high levels of resistance; experiment: Bacterial growth on E. coli strains presenting high levels of resistance; assay type: cell-based, Escherichia coli; set-up: key to Effects (0 < 1 < 2 < 3): 0 = no effect; 1 = pure only; 2 = several concs; 3 = strong at each; key to Δ DO: change in optical density measured at 600 nm; conditions: for Effects (0 < 1 < 2 < 3): molecules at 1, 0.5 and 0.1 mg/ml, triclosan at 0.1 mg/ml
Experimental: as §1, §2
(§5) Compounds of the invention were tested on 4 strains of E. coli, 3 strains of K. pneumoniae and 4 strains of S. aureus with the resistance profiles below.

[5] = test system: K. pneumoniae strains presenting high levels of resistance; experiment: Bacterial growth on K. pneumoniae strains presenting high levels of resistance; assay type: cell-based, Klebsiella pneumoniae; set-up: key to Effects (0 < 1 < 2 < 3): 0 = no effect; 1 = pure only; 2 = several concs; 3 = strong at each; key to Δ DO: change in optical density measured at 600 nm; conditions: for Effects (0 < 1 < 2 < 3): molecules at 1, 0.5 and 0.1 mg/ml, triclosan at 0.1 mg/ml
Experimental: as §1, §2, §5

[6] = test system: S. aureus strains presenting high levels of resistance; experiment: Bacterial growth on S. aureus strains presenting high levels of resistance; assay type: cell-based, Staphylococcus aureus; set-up: key to Effects (0 < 1 < 2 < 3): 0 = no effect; 1 = pure only; 2 = several concs; 3 = strong at each; key to Δ DO: change in optical density measured at 600 nm; conditions: for Effects (0 < 1 < 2 < 3): molecules at 1, 0.5 and 0.1 mg/ml, triclosan at 0.1 mg/ml
Experimental: as §1, §2, §5

androgenic receptors = target: T1, androgenic receptors (Homo sapiens, UniProt P10275); experiment: Affinity test for androgenic receptors, inhibition of bonding of radioactive marked testosterone; assay type: binding; conditions: 10^−5 M, greater than 50% considered significant, read-out: % of inhibition (average of the two measurements)
T1 sequence (P10275 1-920): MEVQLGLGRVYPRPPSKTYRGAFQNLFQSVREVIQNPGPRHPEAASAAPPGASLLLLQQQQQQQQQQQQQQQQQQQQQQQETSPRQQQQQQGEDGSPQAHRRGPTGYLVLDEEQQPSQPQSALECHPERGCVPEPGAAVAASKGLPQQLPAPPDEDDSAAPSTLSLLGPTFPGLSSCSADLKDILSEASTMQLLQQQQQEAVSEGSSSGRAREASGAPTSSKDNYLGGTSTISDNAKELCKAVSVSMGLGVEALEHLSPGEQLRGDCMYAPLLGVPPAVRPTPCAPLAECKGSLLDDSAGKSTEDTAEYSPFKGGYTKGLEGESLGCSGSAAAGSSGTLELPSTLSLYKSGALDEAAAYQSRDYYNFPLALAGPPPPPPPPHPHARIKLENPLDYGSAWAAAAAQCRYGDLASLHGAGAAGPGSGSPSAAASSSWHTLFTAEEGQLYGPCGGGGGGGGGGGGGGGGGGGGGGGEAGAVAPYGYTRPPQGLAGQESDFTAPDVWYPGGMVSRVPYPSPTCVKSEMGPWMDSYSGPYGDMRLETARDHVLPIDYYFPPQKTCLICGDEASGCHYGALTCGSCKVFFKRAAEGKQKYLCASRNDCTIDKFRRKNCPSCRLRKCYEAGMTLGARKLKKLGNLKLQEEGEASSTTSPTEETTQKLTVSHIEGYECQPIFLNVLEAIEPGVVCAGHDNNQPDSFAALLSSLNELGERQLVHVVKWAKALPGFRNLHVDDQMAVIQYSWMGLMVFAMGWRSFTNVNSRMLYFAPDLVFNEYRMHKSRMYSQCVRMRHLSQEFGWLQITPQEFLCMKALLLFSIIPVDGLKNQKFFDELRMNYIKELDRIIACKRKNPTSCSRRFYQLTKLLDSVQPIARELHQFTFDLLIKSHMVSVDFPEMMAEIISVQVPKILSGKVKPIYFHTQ

inhibition at 10 µM (androgenic receptors): 3.1%
Structure (SMILES): COc1cc(O)c(Br)c(Cl)c1F [sr7615]
Effect level [1]: 3
Effect level, S. zooepidemicus [2]: 3
Effect level, S. aureus (Staphylococcus aureus): 3
Effect level, E. coli (Escherichia coli): 3
Effect level, K. pneumoniae (Klebsiella pneumoniae): 2
Effect level, S. maltophila [3]: 2
Δ DO ([4]; E. coli Strain 1, 0.1 mg/ml): 0.047
Δ DO ([4]; E. coli Strain 1, 0.5 mg/ml): 0.777
Δ DO ([4]; E. coli Strain 1, 1 mg/ml): 0.896
Effects (0 < 1 < 2 < 3) ([4]; E. coli Strain 1): 2
Δ DO ([4]; E. coli Strain 2, 0.1 mg/ml): 0.080
Δ DO ([4]; E. coli Strain 2, 0.5 mg/ml): 0.886
Δ DO ([4]; E. coli Strain 2, 1 mg/ml): 1.082
Effects (0 < 1 < 2 < 3) ([4]; E. coli Strain 2): 2
Δ DO ([4]; E. coli Strain 3, 0.1 mg/ml): 0.029
Δ DO ([4]; E. coli Strain 3, 0.5 mg/ml): 0.526
Δ DO ([4]; E. coli Strain 3, 1 mg/ml): 0.882
Effects (0 < 1 < 2 < 3) ([4]; E. coli Strain 3): 2
Δ DO ([4]; E. coli Strain 4, 0.1 mg/ml): 0.253
Δ DO ([4]; E. coli Strain 4, 0.5 mg/ml): 0.809
Δ DO ([4]; E. coli Strain 4, 1 mg/ml): 0.945
Effects (0 < 1 < 2 < 3) ([4]; E. coli Strain 4): 3
Δ DO ([5]; K. pneumoniae Strain 1, 0.1 mg/ml): 0.025
Δ DO ([5]; K. pneumoniae Strain 1, 0.5 mg/ml): 0.490
Δ DO ([5]; K. pneumoniae Strain 1, 1 mg/ml): 0.640
Effects (0 < 1 < 2 < 3) ([5]; K. pneumoniae Strain 1): 2
Δ DO ([5]; K. pneumoniae Strain 2, 0.1 mg/ml): −0.021
Δ DO ([5]; K. pneumoniae Strain 2, 0.5 mg/ml): 0.518
Δ DO ([5]; K. pneumoniae Strain 2, 1 mg/ml): 0.621
Effects (0 < 1 < 2 < 3) ([5]; K. pneumoniae Strain 2): 2
Δ DO ([5]; K. pneumoniae Strain 3, 0.1 mg/ml): 0.134
Δ DO ([5]; K. pneumoniae Strain 3, 0.5 mg/ml): 0.598
Δ DO ([5]; K. pneumoniae Strain 3, 1 mg/ml): 0.913
Effects (0 < 1 < 2 < 3) ([5]; K. pneumoniae Strain 3): 2
Δ DO ([6]; S. aureus Strain 1, 0.1 mg/ml): 0.250
Δ DO ([6]; S. aureus Strain 1, 0.5 mg/ml): 0.434
Δ DO ([6]; S. aureus Strain 1, 1 mg/ml): 0.428
Effects (0 < 1 < 2 < 3) ([6]; S. aureus Strain 1): 3
Δ DO ([6]; S. aureus Strain 2, 0.1 mg/ml): 0.308
Δ DO ([6]; S. aureus Strain 2, 0.5 mg/ml): 0.412
Δ DO ([6]; S. aureus Strain 2, 1 mg/ml): 0.382
Effects (0 < 1 < 2 < 3) ([6]; S. aureus Strain 2): 3
Δ DO ([6]; S. aureus Strain 3, 0.1 mg/ml): 0.310
Δ DO ([6]; S. aureus Strain 3, 0.5 mg/ml): 0.482
Δ DO ([6]; S. aureus Strain 3, 1 mg/ml): 0.445
Effects (0 < 1 < 2 < 3) ([6]; S. aureus Strain 3): 3
Δ DO ([6]; S. aureus Strain 4, 0.1 mg/ml): 0.351
Δ DO ([6]; S. aureus Strain 4, 0.5 mg/ml): 0.450
Δ DO ([6]; S. aureus Strain 4, 1 mg/ml): 0.418
Effects (0 < 1 < 2 < 3) ([6]; S. aureus Strain 4): 3
